Data reported in patent US10766869B2, “Triazoles for the treatment of demyelinating dieases” (Vertex Pharmaceuticals Incorporated, priority 2015, dated 2020).

System: primary rat mixed cortical cells
Test: In vitro myelination assay (MBP positive myelin strands, fold myelin pixels above background)
Format: cell-based
Conditions: Rattus norvegicus, relative to baseline of no added compound; for fold induction at 1 µM: 1.0 μM compound, read-out: Fold myelin pixels above background, 1.0 μM; for fold induction at 10 µM: 10.0 μM compound, read-out: Fold myelin pixels above background, 10.0 μM
Description: In Vitro Myelination Assay
Compounds were screened for their ability to induce myelination using a primary rat mixed cortical cell culture assay, which contains neurons, oligodendrocyte precursor cells, oligodendrocytes, astrocytes and microglia. The assay quantifies myelination by measuring myelin basic protein (MBP) immunofluorescent positive myelin strands from images taken using a Cellomics Array Scan (model Arrayscan VTI HCS Reader) or a Molecular Devices Image Xpress (model IXM XL) high content imager. The myelin strands were quantitated using a custom created myelin detection software program. Test compounds were dissolved in DMSO to make a 10 mM initial stock solution. Dilutions were made in myelination medium to obtain the final solutions for the assay and were tested in primary rat mixed cortical cells at selected doses.
Primary rat mixed cortical cells were prepared from harvested cerebral cortices from postnatal day 1 (P1) rats (P1 Rat CD® IGS pups) were purchased from Charles River) in Complete Dissociation Medium, wherein the meninges were removed and the cortical tissue chopped with a razor blade into ˜1 mm^3 pieces. Tissue from 1-3 pups was collected and placed into 15 ml conical tubes in a total volume of 5 ml of Complete Dissociation Medium. Activated papain (3 ml) was added to each 15 ml conical tube and tissue was incubated at 37° C. for 30 minutes. After the 30 minute incubation, DNase (Sigma D4527; 75 μl of a 1 mg/ml stock) was added to each tube, followed by mechanical trituration using a 2 ml serological pipette and autopipettor to gently dissociate the tissue. Following trituration, larger tissue pieces were allowed to settle by gravity, and the supernatant containing dissociated cells was transferred to a 50 ml conical tube with 4 ml of trypsin inhibitor. Cells were pelleted by centrifugation, resuspended in myelination medium and filtered through a 40 μm filter. Cells were then seeded in 96-well plates (BD Biosciences, Black, PDL-coated, Cat. No. 356640) at 87,500-95,000 cells/well in a final volume of 200 μl of Myelination Medium in the presence or absence of compound and cultured for 14 days in a humidified 37° C. incubator with 5% CO2. Half the medium was removed and replaced with fresh medium containing 1× compound on days 6 and 10. Using a Biotek automatic plate washer (model Biomek® FXP Laboratory Automation Workstation), cells were fixed with 4% paraformaldehyde on day 14, washed with PBS and blocked in 5% normal goat serum (Vector Laboratories, S-1000) in 0.1% PBS-TritonX-100 (PBST) for 1 hour. Cells were stained with 1:500 anti-MBP (Covance, cat # SMI99) primary antibody in 1% normal goat serum in 0.1% PBST for 2 hours at room temperature followed by 2 washes with PBST. A final incubation in secondary antibody (1:1000, Invitrogen, Alexa-488 anti-mouse IgG2b) and 1:10,000 Hoechst dye in 1% normal goat serum in 0.1% PBST was performed for 2 hours at room temperature. Plates were washed with PBS and then scanned on a Cellomics Array Scan using a 10× objective (25 images per well) or the Image Xpress using a 10× objective (9 image per well). Images were analyzed using Vertex myelin detection software (described below) to quantify total MBP myelin pixels per well. Fold myelin pixels above background at two concentrations (1.0 μM and 10.0 μM) relative to baseline of no added compound are reported below in Table 4. Standard deviation for each compound concentration was calculated using all replicates and using a standard deviation formula commonly used in the art.
One of skill in the art would recognize that for this type of primary neuronal mixed cell assay variability between different assay runs is to be expected even though the protocol is the same for each assay run. For instance, variability may be due to small differences in cell viability, cell density, age of the animals, etc.
Vertex Myelin Detection Software: […]

## Cc1cc(Nc2ncn(-c3ccnc(F)c3)n2)cc(N2CCN(C3COC3)CC2)c1 [Compound 40, 1-(2-fluoro-4-pyridyl)-N-[3-methyl-5-[4-(oxetan-3-yl)piperazin-1-yl]phenyl]-1,2,4-triazol-3-amine]
  fold induction at 1 µM: 1000 to 10000
  fold induction at 10 µM: 10 to 100

## CCOCC1CCCN1c1cc(F)cc(-n2cnc(Nc3cc(C)cc(N4CCN(C5COC5)CC4)c3)n2)c1 (centres unmarked) [Compound 41, 1-[3-[2-(ethoxymethyl)pyrrolidin-1-yl]-5-fluoro-phenyl]-N-[3-methyl-5-[4-(oxetan-3-yl)piperazin-1-yl]phenyl]-1,2,4-triazol-3-amine]
  fold induction at 1 µM: 10 to 100
  fold induction at 10 µM: ≤ 1

## Cc1cc(Nc2ncn(-c3ccnc(Cl)c3)n2)cc(N2CCCC2)c1 [Compound 42, 1-(2-chloro-4-pyridyl)-N-(3-methyl-5-pyrrolidin-1-yl-phenyl)-1,2,4-triazol-3-amine]
  fold induction at 1 µM: 10 to 100
  fold induction at 10 µM: 100 to 1000

## Cc1cc(Nc2ncn(-c3ccc(F)c(F)c3)n2)cc(N2CCOCC2)c1 [Compound 43, 1-(3,4-difluorophenyl)-N-(3-methyl-5-morpholino-phenyl)-1,2,4-triazol-3-amine]
  fold induction at 1 µM: 100 to 1000
  fold induction at 10 µM: 100 to 1000

## CC1CCN(c2cc(Nc3ncn(-c4ccccc4)n3)cc(C3CC3)n2)CC1 [Compound 44, 2-cyclopropyl-6-(4-methyl-1-piperidyl)-N-(1-phenyl-1,2,4-triazol-3-yl)pyridin-4-amine]
  fold induction at 1 µM: 1000 to 10000
  fold induction at 10 µM: 1000 to 10000

## Cc1cc(Nc2ncn(-c3ccccc3)n2)cc(N2CCOCC2)c1 [Compound 45, N-(3-methyl-5-morpholino-phenyl)-1-phenyl-1,2,4-triazol-3-amine]
  fold induction at 1 µM: 1000 to 10000
  fold induction at 10 µM: 100 to 1000

## Cc1cc(Nc2ncn(-c3ccc(F)c(F)c3)n2)cc(O[C@@H]2CCN(C3COC3)C2)c1 [Compound 46, 1-(3,4-difluorophenyl)-N-[3-methyl-5-[(3R)-1-(oxetan-3-yl)pyrrolidin-3-yl]oxy-phenyl]-1,2,4-triazol-3-amine]
  fold induction at 1 µM: 1000 to 10000
  fold induction at 10 µM: 1 to 10

## c1ccc(-n2cnc(Nc3cc(C4CC4)cc(N4CCN(C5COC5)CC4)c3)n2)cc1 [Compound 47, N-[3-cyclopropyl-5-[4-(oxetan-3-yl)piperazin-1-yl]phenyl]-1-phenyl-1,2,4-triazol-3-amine]
  fold induction at 1 µM: 100 to 1000
  fold induction at 10 µM: ≤ 1

## Fc1cc(Nc2ncn(-c3ccccc3F)n2)cc(N2CCOCC2)c1 [Compound 49, N-(3-fluoro-5-morpholino-phenyl)-1-(2-fluorophenyl)-1,2,4-triazol-3-amine]
  fold induction at 1 µM: ≤ 1
  fold induction at 10 µM: 10 to 100

## CCc1cc(Nc2ncn(-c3ncncc3F)n2)cc(N2CCN(C3COC3)CC2)c1 [Compound 50, N-[3-ethyl-5-[4-(oxetan-3-yl)piperazin-1-yl]phenyl]-1-(5-fluoropyrimidin-4-yl)-1,2,4-triazol-3-amine]
  fold induction at 1 µM: ≤ 1
  fold induction at 10 µM: 1000 to 10000

## Cc1cc(Nc2ncn(-c3ccccc3)n2)cc(C2CCN(C3(CS(=O)(=O)c4ccccc4)COC3)CC2)c1 [Compound 51, N-[3-[1-[3-(benzenesulfonylmethyl)oxetan-3-yl]-4-piperidyl]-5-methyl-phenyl]-1-phenyl-1,2,4-triazol-3-amine]
  fold induction at 1 µM: 100 to 1000
  fold induction at 10 µM: 100 to 1000

## Cc1cc(Nc2ncn(-c3ccc(F)c(F)c3)n2)cc(O[C@H]2CCN(C3COC3)C2)c1 [Compound 52, 1-(3,4-difluorophenyl)-N-[3-methyl-5-[(3S)-1-(oxetan-3-yl)pyrrolidin-3-yl]oxy-phenyl]-1,2,4-triazol-3-amine]
  fold induction at 1 µM: 1000 to 10000
  fold induction at 10 µM: ≤ 1

## Cc1cc(Nc2ncn(-c3cc(F)cc(F)c3)n2)cc(N2CCN(C)C(CO)C2)c1 (centres unmarked) [Compound 53, [4-[3-[[1-(3,5-difluorophenyl)-1,2,4-triazol-3-yl]amino]-5-methyl-phenyl]-1-methyl-piperazin-2-yl]methanol]
  fold induction at 1 µM: 10 to 100
  fold induction at 10 µM: ≤ 1

## Cc1cc(Nc2ncn(-c3cc(C)ccn3)n2)cc(N2CCN(C3COC3)CC2)c1 [Compound 54, N-[3-methyl-5-[4-(oxetan-3-yl)piperazin-1-yl]phenyl]-1-(4-methyl-2-pyridyl)-1,2,4-triazol-3-amine]
  fold induction at 1 µM: 10 to 100
  fold induction at 10 µM: 100 to 1000

## Clc1cccc(-n2cnc(Nc3cc(C4CC4)cc(N4CCN(C5COC5)CC4)c3)n2)c1 [Compound 55, 1-(3-chlorophenyl)-N-[3-cyclopropyl-5-[4-(oxetan-3-yl)piperazin-1-yl]phenyl]-1,2,4-triazol-3-amine]
  fold induction at 1 µM: 100 to 1000
  fold induction at 10 µM: ≤ 1

## COc1cc(F)cc(-n2cnc(Nc3cc(C)cc(N4CCN(C5COC5)CC4)c3)n2)c1 [Compound 56, 1-(3-fluoro-5-methoxy-phenyl)-N-[3-methyl-5-[4-(oxetan-3-yl)piperazin-1-yl]phenyl]-1,2,4-triazol-3-amine]
  fold induction at 1 µM: 100 to 1000
  fold induction at 10 µM: 100 to 1000

## Cc1cc(Nc2ncn(-c3ccccc3)n2)cc(N2CCNC([C@](C)(O)C(C)C)C2)n1 (stereo partly drawn) [Compound 57, (2R)-3-methyl-2-[4-[6-methyl-4-[(1-phenyl-1,2,4-triazol-3-yl)amino]-2-pyridyl]piperazin-2-yl]butan-2-ol]
  fold induction at 1 µM: 100 to 1000
  fold induction at 10 µM: ≤ 1

## CCc1cc(Nc2ncn(-c3cc(C)ncn3)n2)cc(N2CCN(C3COC3)CC2)c1 [Compound 58, N-[3-ethyl-5-[4-(oxetan-3-yl)piperazin-1-yl]phenyl]-1-(6-methylpyrimidin-4-yl)-1,2,4-triazol-3-amine]
  fold induction at 1 µM: 100 to 1000
  fold induction at 10 µM: 100 to 1000

## Cc1cc(Nc2ncn(-c3ccccc3)n2)cc(N2CCNC(CO)C2)c1 (centres unmarked) [Compound 59, [4-[3-methyl-5-[(1-phenyl-1,2,4-triazol-3-yl)amino]phenyl]piperazin-2-yl]methanol]
  fold induction at 1 µM: 100 to 1000
  fold induction at 10 µM: 100 to 1000

## Cc1cc(Nc2ncn(-c3ccccc3)n2)cc(C2CCCN(C)C2)c1 (centres unmarked) [Compound 60, N-[3-methyl-5-(1-methyl-3-piperidyl)phenyl]-1-phenyl-1,2,4-triazol-3-amine]
  fold induction at 1 µM: 1000 to 10000
  fold induction at 10 µM: ≤ 1

## Cc1cc(Nc2ncn(-c3cc(F)cc(F)c3)n2)cc(C2=CCN(C3COC3)CC2)c1 [Compound 61, 1-(3,5-difluorophenyl)-N-[3-methyl-5-[1-(oxetan-3-yl)-3,6-dihydro-2H-pyridin-4-yl]phenyl]-1,2,4-triazol-3-amine]
  fold induction at 1 µM: 1000 to 10000
  fold induction at 10 µM: ≤ 1

## FC(F)c1cc(Nc2ncn(-c3ccccc3)n2)cc(N2CCNCC2)c1 [Compound 62, N-[3-(difluoromethyl)-5-piperazin-1-yl-phenyl]-1-phenyl-1,2,4-triazol-3-amine]
  fold induction at 1 µM: 1000 to 10000
  fold induction at 10 µM: ≤ 1

## CN1CCN(c2cc(Nc3ncn(-c4cc(F)cc(F)c4)n3)cc(C(F)(F)F)c2)CC1 [Compound 63, 1-(3,5-difluorophenyl)-N-[3-(4-methylpiperazin-1-yl)-5-(trifluoromethyl)phenyl]-1,2,4-triazol-3-amine]
  fold induction at 1 µM: 10 to 100
  fold induction at 10 µM: 1 to 10

## CSc1nccc(-n2cnc(Nc3cc(C)cc(N4CCN(C5COC5)CC4)c3)n2)n1 [Compound 64, N-[3-methyl-5-[4-(oxetan-3-yl)piperazin-1-yl]phenyl]-1-(2-methylsulfanylpyrimidin-4-yl)-1,2,4-triazol-3-amine]
  fold induction at 1 µM: 10 to 100
  fold induction at 10 µM: ≤ 1

## Cc1cc(Nc2ncn(-c3ccccc3)n2)cc(C2CN(C3COC3)C2)c1 [Compound 65, N-[3-methyl-5-[1-(oxetan-3-yl)azetidin-3-yl]phenyl]-1-phenyl-1,2,4-triazol-3-amine]
  fold induction at 1 µM: 1000 to 10000
  fold induction at 10 µM: 1 to 10
